The term melting point denotes the temperature of the solid-liquid transition.

This passage reports melting point results from patent US6855710B2, “Substituted indolines with an inhibitory effect on various kinases and complexes of CDKs” (Boehringer Ingelheim Pharma KG, priority 1998, dated 2005).

For the compound `O=C1Nc2ccccc2/C1=C(/Nc1ccc(NS(=O)(=O)CCN2CCCCC2)cc1)c1ccccc1` [Example 380, (Z)-3-{1-[4-(2-piperidinoethylsulphonylamino)-phenylamino]-1-phenyl-methylidene}-2-indolinone], the melting point fell in the range of 225 to 227 °C.

In the case of `CC(=O)NCc1ccc(/C(Nc2ccc(N(CCN(C)C)S(C)(=O)=O)cc2)=C2/C(=O)Nc3ccccc32)cc1` [Example 427, (Z)-3-{1-[4-(N-(2-dimethylaminoethyl)-N-methylsulphonyl-amino)-phenylamino]-1-(4-acetylaminomethyl-phenyl)-methylidene}-2-indolinone], the melting point is 225 to 227 °C.

`O=CNc1ccc(N/C(=C2\C(=O)Nc3ccccc32)c2ccccc2)cc1` [Example 29, (Z)-3-[1-(4-formylamino-phenylamino)-1-phenyl-methylidene]-2-indolinone] had a melting point of 268 to 269 °C.

The compound `O=C1Nc2ccc([N+](=O)[O-])cc2/C1=C(/Nc1ccc(CN2CCC(O)CC2)cc1)c1ccccc1` [Example 168, (Z)-3-{1-[4-(4-hydroxypiperidinomethyl)-phenylamino]-1-phenyl-methylidene}-5-nitro-2-indolinone] yielded a melting point of 155 °C.

For `CCCS(=O)(=O)N(CCN(C)C)c1ccc(N/C(=C2\C(=O)Nc3ccc([N+](=O)[O-])cc32)c2ccccc2)cc1` [Example 310, (Z)-3-{1-[4-(N-(2-dimethylaminoethyl)-N-propylsulphonyl-amino)-phenylamino]-1-phenyl-methylidene}-5-nitro-2-indolinone], the melting point worked out at 212 °C.

The compound `O=C(O)CNC(=O)c1ccc(N/C(=C2\C(=O)Nc3ccccc32)c2ccccc2)cc1` [Example 393, (Z)-3-{1-[4-(carboxymethylaminocarbonyl)-phenylamino]-1-phenyl-methylidene}-2-indolinone] had a melting point of 245 to 247 °C.

Take `CC(C)C(=O)N(CCN(C)C)c1ccc(N/C(=C2\C(=O)Nc3ccccc32)c2ccccc2)cc1` [Example 342, (Z)-3-{1-[4-(N-(2-dimethylaminoethyl)-N-isopropylcarbonyl-amino)-phenylamino]-1-phenyl-methylidene}-2-indolinone]: the melting point lay in the range of 280 to 282 °C.

Compound `CCOC(=O)CN(C(=O)CC)c1ccc(N/C(=C2\C(=O)Nc3ccccc32)c2ccccc2)cc1` [Example 356, (Z)-3-{1-[4-(N-ethoxycarbonylmethyl-N-propionyl-amino)-phenylamino]-1-phenyl-methylidene}-2-indolinone] had a melting point of 229 to 232 °C.

`COc1ccc(/C(Nc2ccc(CN(C)C)cc2)=C2/C(=O)Nc3ccccc32)cc1` [Example 215, (Z)-3-[1-(4-dimethylaminomethyl-phenylamino)-1-(4-methoxyphenyl)-methylidene]-2-indolinone] showed a melting point of 206 to 207 °C.

As to `CS(=O)(=O)N(CCN1CCOCC1)c1cccc(N/C(=C2\C(=O)Nc3ccccc32)c2ccccc2)c1` [Example 325, (Z)-3-{1-[3-(N-(2-morpholinoethyl)-N-methylsulphonyl-amino)-phenylamino]-1-phenyl-methylidene}-2-indolinone], the melting point lay in the range of 177 to 179 °C.

Regarding `CN(C(=O)CN1CCCC1)c1ccc(N/C(=C2\C(=O)Nc3ccc([N+](=O)[O-])cc32)c2ccccc2)cc1` [Example 364, (Z)-3-{1-[4-(N-(pyrrolidin-1-ylmethylcarbonyl)-N-methyl-amino)-phenylamino]-1-phenyl-methylidene}-5-nitro-2-indolinone], the melting point lay in the range of 246 to 247 °C.

`COCC(=O)NCc1ccc(N/C(=C2\C(=O)Nc3ccccc32)c2ccccc2)cc1` [Example 76, (Z)-3-[1-(4-methoxymethylcarbonylaminomethyl-phenylamino)-1-phenyl-methylidene]-2-indolinone] registered a melting point of 178 to 180 °C.

Regarding `O=C(O)CN(C(=O)c1ccccc1)c1ccc(N/C(=C2\C(=O)Nc3ccccc32)c2ccccc2)cc1` [Example 361, (Z)-3-{1-[4-(N-carboxymethyl-N-benzoyl-amino)-phenylamino]-1-phenyl-methylidene}-2-indolinone], the melting point is 277 °C (dec.).

Take `O=C1Nc2ccccc2/C1=C(/Nc1ccc(S(=O)(=O)N2CCCC2)cc1)c1ccccc1` [Example 397, (Z)-3-{1-[4-(pyrrolidin-1-ylsulphonyl)-phenylamino]-1-phenyl-methylidene}-2-indolinone]: the melting point fell in the range of 293 to 294 °C.

In turn, `CCN(CCO)CCc1ccc(N/C(=C2\C(=O)Nc3ccc([N+](=O)[O-])cc32)c2ccccc2)cc1` [Example 131, (Z)-3-{1-[4-(2-(N-(2-hydroxyethyl)-N-ethyl-amino)-ethyl)-phenylamino]-1-phenyl-methylidene}-5-nitro-2-indolinone] returned a melting point of 165 to 166 °C.

In turn, `Cc1cccc(N/C(=C2\C(=O)Nc3ccccc32)c2ccccc2)c1` [Example 6, (Z)-3-[1-(3-methyl-phenylamino)-1-phenyl-methylidene]-2-indolinone] displayed a melting point of 218 to 220 °C.

With `C[C@@H](N)c1ccc(N/C(=C2\C(=O)Nc3ccc([N+](=O)[O-])cc32)c2ccccc2)cc1.Cl`, the melting point fell in the range of 230 to 235 °C.

As to `CN(C)CCN(C=O)c1ccc(N/C(=C2\C(=O)Nc3ccc([N+](=O)[O-])cc32)c2ccccc2)cc1` [Example 327, (Z)-3-{1-[4-(N-(2-dimethylaminoethyl)-N-formyl-amino)-phenylamino]-1-phenyl-methylidene}-5-nitro-2-indolinone], the melting point fell in the range of 215 to 218 °C.

`CC(C)C(=O)N(CCN(C)C)c1ccc(N/C(=C2\C(=O)Nc3ccc([N+](=O)[O-])cc32)c2ccccc2)cc1` [Example 330, (Z)-3-{1-[4-(N-(2-dimethylaminoethyl)-N-isopropylcarbonyl-amino)-phenylamino]-1-phenyl-methylidene}-5-nitro-2-indolinone] had a melting point of 296 to 298 °C.

`CN(C)CCN(c1cccc(N/C(=C2\C(=O)Nc3ccccc32)c2ccc(CN)cc2)c1)S(C)(=O)=O` [Example 422, (Z)-3-{1-[3-(N-(2-dimethylaminoethyl)-N-methylsulphonyl-amino)-phenylamino]-1-(4-aminomethyl-phenyl)-methylidene}-2-indolinone] displayed a melting point of 161 °C.

In turn, `Cl.NCC(=O)NCc1ccc(N/C(=C2\C(=O)Nc3ccc([N+](=O)[O-])cc32)c2ccccc2)cc1` had a melting point of 225 to 228 °C.

Regarding `O=C1Nc2ccc([N+](=O)[O-])cc2/C1=C(/Nc1ccc(CNc2ncccn2)cc1)c1ccccc1` [Example 271, (Z)-3-{1-[4-(pyrimidin-2-ylaminomethyl)-phenylamino]-1-phenyl-methylidene}-5-nitro-2-indolinone], the melting point lay within 284 to 286 °C.

Regarding `CN(C)Cc1ccc(N/C(=C2\C(=O)Nc3ccccc32)c2ccc(Cl)cc2)cc1` [Example 221, (Z)-3-[1-(4-dimethylaminomethyl-phenylamino)-1-(4-chlorophenyl)-methylidene]-2-indolinone], the melting point amounted to 213 °C.

The compound `O=C1Nc2ccc([N+](=O)[O-])cc2/C1=C(/Nc1ccc(CCN2CCCCC2)cc1)c1ccccc1` [Example 132, (Z)-3-{1-[4-(2-piperidinoethyl)-phenylamino]-1-phenyl-methylidene}-5-nitro-2-indolinone] displayed a melting point of 236 to 237 °C.

With `O=C(O)CNS(=O)(=O)c1ccc(N/C(=C2\C(=O)Nc3ccccc32)c2ccccc2)cc1` [Example 407, (Z)-3-{1-[4-(carboxymethylaminosulphonyl)-phenylamino]-1-phenyl-methylidene}-2-indolinone], the melting point was 236 °C (dec.).

The compound `CN(C(=O)CCNC(=O)OC(C)(C)C)c1ccc(N/C(=C2\C(=O)Nc3ccccc32)c2ccccc2)cc1` [Example 376, (Z)-3-{1-[4-(N-(2-tert.butoxycarbonylamino-ethylcarbonyl)-N-methyl-amino)-phenylamino]-1-phenyl-methylidene}-2-indolinone] showed a melting point of 246 to 248 °C.

On to `CNCCc1ccc(N/C(=C2\C(=O)Nc3ccc([N+](=O)[O-])cc32)c2ccccc2)cc1` [Example 254, (Z)-3-{1-[4-(2-methylamino-ethyl)-phenylamino]-1-phenyl-methylidene}-5-nitro-2-indolinone], for which the melting point lay in the range of 250 to 252 °C.

In turn, `CCC(=O)Nc1ccc(N/C(=C2\C(=O)Nc3ccccc32)c2ccccc2)cc1` [Example 39, (Z)-3-[1-(4-propionylamino-phenylamino)-1-phenyl-methylidene]-2-indolinone] displayed a melting point of 255 to 256 °C.

As to `CCOC(=O)CNC(=O)c1ccc(N/C(=C2\C(=O)Nc3ccccc32)c2ccccc2)cc1` [Example 392, (Z)-3-{1-[4-(ethoxycarbonylmethylaminocarbonyl)-phenylamino]-1-phenyl-methylidene}-2-indolinone], the melting point lay in the range of 235 to 237 °C.

Turning to `N=C(N)c1cccc(N/C(=C2\C(=O)Nc3ccccc32)c2ccccc2)c1` [Example 64, (Z)-3-[1-(3-amidinophenylamino)-1-phenyl-methylidene]-2-indolinone], the melting point lay within 235 to 237 °C.

The compound `CN(C)Cc1ccc(N/C(=C2\C(=O)Nc3ccccc32)c2ccc([N+](=O)[O-])cc2)cc1` [Example 219, (Z)-3-[1-(4-dimethylaminomethyl-phenylamino)-1-(4-nitrophenyl)-methylidene]-2-indolinone] displayed a melting point of 235 °C.

Compound `CN(C)CCN(c1ccc(N/C(=C2\C(=O)Nc3ccc([N+](=O)[O-])cc32)c2ccccc2)cc1)S(=O)(=O)Cc1ccccc1` [Example 313, (Z)-3-{1-[4-(N-(2-dimethylaminoethyl)-N-benzylsulphonyl-amino)-phenylamino]-1-phenyl-methylidene}-5-nitro-2-indolinone] showed a melting point of 248 °C.

Turning to `O=C(O)CCNCc1cccc(N/C(=C2\C(=O)Nc3ccc([N+](=O)[O-])cc32)c2ccccc2)c1` [Example 252, (Z)-3-{1-[3-(2-carboxyethylaminomethyl)-phenylamino]-1-phenyl-methylidene}-5-nitro-2-indolinone], the melting point is 247 to 249 °C.
